Test results published in article PMC10692381 (Acta Pharmaceutica Sinica. B, 2023).

Target: PRMT3 (Homo sapiens, UniProt O60678)
Assay: Fluorescence-based SAHH-coupled PRMT3 methylation assay
Type: biochemical

Sequence of PRMT3 (O60678 211-531): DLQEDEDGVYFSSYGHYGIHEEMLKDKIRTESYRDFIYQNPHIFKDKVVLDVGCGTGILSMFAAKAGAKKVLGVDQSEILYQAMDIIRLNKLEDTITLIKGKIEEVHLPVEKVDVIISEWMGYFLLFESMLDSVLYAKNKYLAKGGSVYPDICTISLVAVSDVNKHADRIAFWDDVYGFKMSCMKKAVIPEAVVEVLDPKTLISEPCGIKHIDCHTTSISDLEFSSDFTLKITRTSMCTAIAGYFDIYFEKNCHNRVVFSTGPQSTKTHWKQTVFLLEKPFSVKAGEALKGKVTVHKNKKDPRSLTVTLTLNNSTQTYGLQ

| fold reduction in PRMT3 inhibition (compared to YD1113) | SMILES | other results |
| --- | --- | --- |
| – | Nc1ncnc2c1ncn2[C@@H]1O[C@H](CSCCNC(=O)NCc2ccccc2)[C@@H](O)[C@H]1O [Compound 1c] | fold increased inhibition for PRMT3 (compared to 1b (linker 3C to 2C)): 140 fold |
| over 10 fold | Nc1ncnc2c1ncn2[C@@H]1O[C@H](CSCCNC(=O)NCc2ccc(F)cc2)[C@@H](O)[C@H]1O [Compound 1e] | – |
| 4 fold | Nc1ncnc2c1ncn2[C@@H]1O[C@H](CSCCNC(=O)Nc2ccccc2)[C@@H](O)[C@H]1O [Compound 1h] | – |
| 4 fold | Nc1ncnc2c1ncn2[C@@H]1O[C@H](CSCCNC(=O)Nc2ccc(F)cc2)[C@@H](O)[C@H]1O [Compound 1i] | – |
| – | Nc1ncnc2c1ncn2[C@@H]1O[C@H](CSCCNC(=O)Nc2ccc(Cl)cc2)[C@@H](O)[C@H]1O [Compound 1j] | fold reduction in PRMT3 inhibition (compared to 1i): 10 fold |
| – | Nc1ncnc2c1ncn2[C@@H]1O[C@H](CSCCNC(=O)Nc2cccc3ccccc23)[C@@H](O)[C@H]1O [Compound 1k] | fold reduction in PRMT3 inhibition (compared to phenyl (1h)): over 40 fold |
